The target in the assay is T1, CaPAP7 (Cicer arietinum, UniProt A0A1S2YHG0).
T1 construct: gene PAP7; ORF PCR product of 1008 bp (about 335 residues) in pET28a, E. coli BL21(DE3) pLysS, Ni-NTA purified, ~38 kDa on SDS-PAGE; signal peptide predicted but protein cytoplasmic
T1 sequence (A0A1S2YHG0 1-335): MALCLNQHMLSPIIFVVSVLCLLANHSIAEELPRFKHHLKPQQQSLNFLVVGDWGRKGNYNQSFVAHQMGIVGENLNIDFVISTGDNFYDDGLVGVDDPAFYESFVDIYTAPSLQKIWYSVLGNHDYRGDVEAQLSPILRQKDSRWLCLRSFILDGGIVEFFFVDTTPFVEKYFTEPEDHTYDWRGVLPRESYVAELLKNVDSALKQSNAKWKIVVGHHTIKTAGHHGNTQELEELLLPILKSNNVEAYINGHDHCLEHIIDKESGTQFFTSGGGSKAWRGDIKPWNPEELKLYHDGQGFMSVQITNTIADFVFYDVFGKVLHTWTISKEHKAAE
The assay is described as follows: phosphatase activity assay, […] min. It is filed as biochemical. Particulars: 10 mM substrate, 37 °C; maximum activity among substrates tested.

Structures are written as SMILES.

The results in this text go back to article PMC5591292, “Identification of Purple Acid Phosphatases in Chickpea and Potential Roles of CaPAP7 in Seed Phytate Accumulation” (Scientific Reports, 2017).

As to `O=P(O)(O)O[C@H]1[C@H](OP(=O)(O)O)[C@@H](OP(=O)(O)O)[C@H](OP(=O)(O)O)[C@@H](OP(=O)(O)O)[C@H]1OP(=O)(O)O` [phytic acid], the “phosphatase activity assay, 30 min” value was “it exhibited maximum catalytic activity for phytic acid”.
